Assays:
[1] = tested on: SK-LU-1 (Lung Adenocarcinoma); test: Bliss excess, mean over the matrix (fraction); higher = more synergy
Summary of the method: (§1)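 Cell lines in DMEM/F12 or RPMI with 10% FBS were plated in 1536-well plates, held 24 hours at 37°C, 5% CO2, then given two-drug dose matrices for 72 hours (DMSO typically 0.2%). Viability was read by CellTiter-Glo 2.0 luminescence and scaled as inhibition from 0 (vehicle wells) to 1 (blank wells). Combination Emax is the second-highest inhibition in the matrix; Bliss excess is observed combination effect minus expected EA + EB − EA·EB, EA and EB being single-agent effects.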

[2] = tested on: LC-1-sq (Squamous Cell Lung Carcinoma); test: as above
Summary of the method: as §1

[3] = tested on: HCC2998 (Colorectal Carcinoma); test: as above
Summary of the method: as §1

[4] = tested on: NCI-H2122 (Lung Adenocarcinoma); test: as above
Summary of the method: as §1

[5] = tested on: ALL-SIL (T-Lymphoblastic Leukemia); test: as above
Summary of the method: as §1

EW-1 (Ewing's Sarcoma) = test: as above
Summary of the method: as §1

[6] = tested on: G-401 (Other Solid Carcinomas); test: as above
Summary of the method: as §1

[7] = tested on: EJM (Plasma Cell Myeloma); test: as above
Summary of the method: as §1

[8] = tested on: NCI-H650 (Lung Adenocarcinoma); test: as above
Summary of the method: as §1

[9] = tested on: HCC1937 (Breast Carcinoma); test: as above
Summary of the method: as §1

Hey (Ovarian Carcinoma) = test: as above
Summary of the method: as §1

[10] = tested on: KOPN-8 (B-Lymphoblastic Leukemia); test: as above
Summary of the method: as §1

[11] = tested on: HCC1500 (Breast Carcinoma); test: as above
Summary of the method: as §1

[12] = tested on: LC-1-sq (Squamous Cell Lung Carcinoma); test: combination Emax (second highest fraction inhibited in the dose matrix, 72 h); higher = more inhibition; extreme values may be limits of the assay
Summary of the method: as §1

[13] = tested on: HCC2998 (Colorectal Carcinoma); test: as above
Summary of the method: as §1

[14] = tested on: NCI-H2122 (Lung Adenocarcinoma); test: as above
Summary of the method: as §1

[15] = tested on: OACM5-1 (Esophageal Adenocarcinoma); test: as above
Summary of the method: as §1

[16] = tested on: EJM (Plasma Cell Myeloma); test: as above
Summary of the method: as §1

[17] = tested on: HCC1937 (Breast Carcinoma); test: as above
Summary of the method: as §1

[18] = tested on: NCI-H1838 (Lung Adenocarcinoma); test: as above
Summary of the method: as §1
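Throughout, for Bliss excess, mean over the matrix: after 72 h of two-drug dosing.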

| SMILES | Bliss excess [1] | Bliss excess [2] | Bliss excess [3] | Bliss excess [4] | Bliss excess [5] | Bliss excess (EW-1 (Ewing's Sarcoma)) | Bliss excess [6] | Bliss excess [7] | Bliss excess [8] | Bliss excess [9] | Bliss excess (Hey (Ovarian Carcinoma)) | Bliss excess [10] | Bliss excess [11] | combination Emax [12] | combination Emax [13] | combination Emax [14] | combination Emax [15] | combination Emax [16] | combination Emax [17] | combination Emax [18] |
| --- | --- | --- | --- | --- | --- | --- | --- | --- | --- | --- | --- | --- | --- | --- | --- | --- | --- | --- | --- | --- |
| CN(CCO)CC[C@H](CSc1ccccc1)Nc1ccc(S(=O)(=O)NC(=O)c2ccc(N3CCC([C@@H](O)c4ccccc4-c4ccc(Cl)cc4)CC3)cc2)cc1S(=O)(=O)C(F)(F)F [AZD4320] + C[C@@H]1COCCN1C2=NC(=NC(=C2)C3(CC3)[S@](=N)(=O)C)C4=C5C=CNC5=NC=C4 [AZD6738] (first compound max 1 µM, 7x7, partner max 10 µM) | -0.0884 | 0.0261 | -0.0283 | -0.0269 | 0.0038 | 0.0574 | -0.0287 | 0.0488 | -0.0234 | -0.0241 | -0.0697 | -0.0246 | 0.0444 | 0.845 | 0.968 | 0.972 | 0.663 | 0.929 | 0.761 | 0.694 |
| CN(CCO)CC[C@H](CSc1ccccc1)Nc1ccc(S(=O)(=O)NC(=O)c2ccc(N3CCC([C@@H](O)c4ccccc4-c4ccc(Cl)cc4)CC3)cc2)cc1S(=O)(=O)C(F)(F)F [AZD4320] + Cc1cc2ncnn2cc1Nc1ncc2c(n1)n(C1CCOCC1)c(=O)n2C [AZD7648] (first compound max 1 µM, 7x7, partner max 10 µM) | 0.0207 | -0.0093 | -0.0035 | -0.0074 | -0.0083 | 0.0033 | -0.0392 | 0.0347 | -0.021 | -0.0352 | -0.0728 | -0.0243 | -0.0027 | 0.158 | 0.492 | 0.273 | 0.577 | 0.382 | 0.29 | 0.289 |
| Cc1c2c(nn1C)CSCc1cc(n(C)n1)CSc1cc(c3ccccc3c1)OCCCc1c(C(=O)O)n(C)c3c-2c(Cl)ccc13 [AZD5991] + Cn1cnc2c(F)c(Nc3ccc(Br)cc3Cl)c(C(=O)NOCCO)cc21 [Selumetinib] (first compound max 1 µM, 7x7, partner max 3 µM) | -0.0225 | 0.0393 | 0.0417 | 0.028 | 0.0068 | -0.0044 | -0.0039 | 0.0088 | 0.0222 | 0.0328 | -0.0033 | 0.0258 | 0.0093 | 0.311 | 0.998 | 0.935 | 0.94 | 0.983 | 0.464 | 0.511 |
| Cc1cc2ncnn2cc1Nc1ncc2c(n1)n(C1CCOCC1)c(=O)n2C [AZD7648] + O=C(c1cc(Cc2n[nH]c(=O)c3ccccc23)ccc1F)N1CCN(C(=O)C2CC2)CC1 [Olaparib] (first compound max 10 µM, 7x7, partner max 10 µM) | -0.066 | -0.042 | -0.023 | -0.0124 | -0.0083 | -0.0021 | -0.0308 | -0.0369 | -0.0247 | -0.0498 | -0.0088 | 0.0196 | -0.0234 | 0.17 | 0.321 | 0.242 | 0.267 | 0.2 | 0.154 | 0.323 |
| Cc1nc(Nc2ncc(C(=O)Nc3c(C)cccc3Cl)s2)cc(N2CCN(CCO)CC2)n1 [Dasatinib] + CC(=O)Nc1cccc(-n2c(=O)n(C3CC3)c(=O)c3c(Nc4ccc(I)cc4F)n(C)c(=O)c(C)c32)c1 [Trametinib] (first compound max 2 µM, 7x7, partner max 1 µM) | -0.0889 | -0.0577 | 0.111 | 0.0119 | 0.0316 | -0.0586 | -0.0089 | -0.0342 | 0.121 | -0.0262 | 0.001 | -0.188 | -0.0599 | 0.166 | 1 | 0.942 | 0.417 | 0.153 | 0.5 | 0.367 |
| COc1cc2ncnc(Nc3ccc(F)c(Cl)c3)c2cc1OCCCN1CCOCC1 [Gefitinib] + CC(C)n1c(=O)n(C)c2cnc3cc(F)c(-c4ccc(OCCCN5CCCCC5)nc4)cc3c21 [AZD1390] (first compound max 10 µM, 7x7, partner max 0.3 µM) | -0.0818 | -0.0754 | -0.0541 | -0.0508 | -0.0699 | -0.064 | -0.0446 | -0.0395 | -0.0791 | -0.108 | -0.0573 | -0.0725 | -0.0338 | 0.265 | 0.105 | 0.626 | 0.191 | 0.133 | 0.272 | 0.19 |
| C[C@@H](c1ccc2nccn2c1)n1nnc2ncc(-c3cnn(C)c3)nc21 [Savolitinib] + CC1(C)CCC(CN2CCN(c3ccc(C(=O)NS(=O)(=O)c4ccc(NCC5CCOCC5)c([N+](=O)[O-])c4)c(Oc4cnc5[nH]ccc5c4)c3)CC2)=C(c2ccc(Cl)cc2)C1 [Venetoclax] (first compound max 1 µM, 7x7, partner max 1 µM) | -0.0258 | -0.0408 | -0.0866 | -0.0559 | -0.0072 | -0.0386 | -0.0528 | -0.0127 | -0.0822 | -0.0884 | -0.0651 | 0.0298 | -0.008 | 0.116 | 0.105 | 0.196 | 0.166 | 0.232 | 0.165 | 0.146 |
| C[C@@H](c1ccc2nccn2c1)n1nnc2ncc(-c3cnn(C)c3)nc21 [Savolitinib] + Cc1c2c(nn1C)CSCc1cc(n(C)n1)CSc1cc(c3ccccc3c1)OCCCc1c(C(=O)O)n(C)c3c-2c(Cl)ccc13 [AZD5991] (first compound max 1 µM, 7x7, partner max 1 µM) | -0.0291 | -0.0163 | -0.0463 | -0.0513 | -0.0355 | -0.0001 | -0.0047 | 0.0066 | -0.045 | -0.0386 | -0.0321 | 0.0789 | -0.001 | 0.278 | 0.454 | 0.64 | 0.896 | 0.232 | 0.182 | 0.28 |
